Results taken from PMC12431657, “Discovery and mechanistic insights of dibenzoylmethane as a broad spectrum inhibitor of coronavirus” (PLOS Pathogens, 2025).
Values joined by “and” are separate entries in the source; they are usually repeats but may differ in a detail not shown here. Equal values may be shown once.

System: HCoV-OC43
Experiment: In vivo efficacy of DBM against HCoV-OC43 in suckling mice (body weight, viral RNA copies, immunofluorescence, H&E)
Design: species or system BALB/c suckling mice
Conditions: for Viral RNA copies (log scale), Brain / Viral RNA copies (log scale), Kidney / Viral RNA copies (log scale), Lung / Viral RNA copies (log scale), Spinal Cord: one value per mouse
Method: Next, we characterized the therapeutic efficacy of the DBM in vivo. In this experiment, randomized 5–6-day-old suckling BALB/c mice were orally treated with DBM at concentrations of 500, 200, and 100 mpk 2 hours after being intranasally challenged with HCoV-OC43. Menstruum and VV116 were used as negative and positive controls, respectively. All the mice were sacrificed on Day 5 for organ and sample collection (Fig 4A). The body weight changes of the mice were continuously monitored during the trial. Infection with HCoV-OC43 led to body weight loss in the vehicle-treated mice on Day 5 (Fig 4B). […] The number of viral RNA copies from the brain, spinal cord, lungs, and kidneys were analysed via qRT-PCR, which targeted the HCoV-OC43 nucleocapsid gene sequence. On Day 5, the number of viral RNA copies in the vehicle-treated group reached approximately 10^12 copies in the brain, 10^9 copies in the spinal cord, 10^8 copies in the lungs, and 10^6 copies in the kidney (Fig 4C). In the mice treated with DBM at 500 mpk, the number of viral RNA copies within these organs and tissues was reduced by 1–3 logs compared with the vehicle-treated group. […] Sections of mouse brains, spinal cords, lungs, and kidneys were subjected to immunofluorescence staining with antibodies targeting HCoV-OC43 nucleocapsid proteins.
Fig 4 In vivo antiviral efficacy of DBM in 5-day-old BALB/c suckling mice infected with HCoV-OC43. A) Schematic of the experimental design for evaluating DBM in suckling mice. Each group consisted of 5-6 suckling mice. The schematic was created by the authors using Adobe Illustrator 2022. B) Body weight changes of mice during the experiment. Body weights were recorded daily and all mice were euthanised on the fifth day after infection. C) Viral RNA copies in the brains, spinal cords, lungs, and kidneys of mice collected on Day 5. After grinding and centrifuging the samples with DMEM, viral copies from the supernatants were tested by qRT-PCR. D) Viral titres in homogenised organs and tissues collected from mice on Day 5. E) Immunofluorescence staining of brain and lung sections from mice treated with different regimens. HCoV-OC43 nucleocapsid proteins were detected by immunofluorescence (green). Cell nuclei were stained with DAPI (blue). Data were statistically analyzed with Student’s T test. *: p ≤ 0.05, **: p ≤ 0.01, ***: p ≤ 0.001, ****: p ≤ 0.0001; ns, not significant. The experiments were repeated three times independently with similar results. […] No numeric values are printed in any panel, and nothing was read off the bars, points or curves.
BALB/c mice were maintained and bred in a specific-pathogen-free (SPF) environment at the Laboratory Animal Center of Wuhan Institute of Virology, CAS. Pregnant mice with the same expected delivery date were acclimated in individually ventilated cages under standard conditions within an SPF environment. Food and water were available ad libitum. The mice were anaesthetized by isoflurane inhalation before any operation that may have caused potential discomfort. Before the experiment, suckling mice were randomly allocated into 6 distinct groups, namely, the healthy group, the vehicle group, the groups receiving DBM at 500 mg/kg (mpk) orally quaque die (QD), 200 mpk QD, and 100 mpk QD, and the group receiving VV116 at 25 mpk orally QD. Each group was comprised of 5–6 suckling mice. On the initiation day (Day 0) of the experiment, 5–6-day-old BALB/c suckling mice were intranasally infected with 1 × 10^4 TCID50 of HCoV-OC43. Two hours postinoculation, the mice were orally treated with either a placebo or varying doses of the drugs on the basis of their respective groupings as outlined earlier. This oral treatment regimen was continued for several days. The body weight changes of the mice were monitored daily. On Day 5, all the mice in each group were sacrificed for virological and histopathological analyses. […]

Structure (SMILES): O=C(CC(=O)c1ccccc1)c1ccccc1 [DBM, dibenzoylmethane]
- Viral RNA copies (log scale), Brain (DBM 100 mpk oral QD, Day 5): 10.75 and 11.25 and 9.46 and 11.43 and 10.91 and 11.34
- Viral RNA copies (log scale), Kidney (DBM 100 mpk oral QD, Day 5): 4.46 and 4.97 and 5.51 and 4.16 and 5.82 and 6.00
- Viral RNA copies (log scale), Lung (DBM 100 mpk oral QD, Day 5): 5.86 and 6.10 and 6.32 and 5.21 and 6.78 and 7.01
- Viral RNA copies (log scale), Spinal Cord (DBM 100 mpk oral QD, Day 5): 6.20 and 7.58 and 5.38 and 6.52 and 6.60 and 6.93
- Viral RNA copies (log scale), Brain (DBM 200 mpk oral QD, Day 5): 11.00 and 7.97 and 8.87 and 10.9 and 11.19
- Viral RNA copies (log scale), Kidney (DBM 200 mpk oral QD, Day 5): 3.29 and 5.31 and 4.03 and 3.52 and 4.72
- Viral RNA copies (log scale), Lung (DBM 200 mpk oral QD, Day 5): 5.84 and 6.05 and 5.32 and 4.74 and 6.24
- Viral RNA copies (log scale), Spinal Cord (DBM 200 mpk oral QD, Day 5): 7.21 and 4.77 and 4.18 and 5.72 and 5.07
- weight loss during the experiment (DBM 500, 200, 100 mpk, VV116 25 mpk): did not experience weight loss
- Viral RNA copies (log scale), Brain (DBM 500 mpk oral QD, Day 5): 7.30 and 7.20 and 10.02 and 9.11
- Viral RNA copies (log scale), Kidney (DBM 500 mpk oral QD, Day 5): 5.15 and 4.76 and 4.30 and 4.17
- Viral RNA copies (log scale), Lung (DBM 500 mpk oral QD, Day 5): 6.62 and 5.77 and 7.8 and 5.49
- Viral RNA copies (log scale), Spinal Cord (DBM 500 mpk oral QD, Day 5): 7.86 and 7.12 and 7.13 and 6.92
- reduction of viral RNA copies in organs and tissues compared with the vehicle-treated group (DBM 500 mpk, Day 5, brain, spinal cord, lungs, kidneys): 1–3 logs
- Body weight (Fig4B) (Diben-100mpk, day 0, individual mice, 100 mg/kg): 106.0 and 99.6 and 102.4 and 92.2 and 88.6 and 111.2
- Body weight (Fig4B) (Diben-100mpk, day 1, individual mice, 100 mg/kg): 104.0 and 113.7 and 124.8 and 125.0 and 120.9 and 107.3
- Body weight (Fig4B) (Diben-100mpk, day 2, individual mice, 100 mg/kg): 129.4 and 142.0 and 134.3 and 116.8 and 125.0 and 145.3
- Body weight (Fig4B) (Diben-100mpk, day 3, individual mice, 100 mg/kg): 151.0 and 158.2 and 143.3 and 162.5 and 135.0 and 139.2
- Body weight (Fig4B) (Diben-100mpk, day 4, individual mice, 100 mg/kg): 155.1 and 164.8 and 182.5 and 163.5 and 153.3 and 179.2
- Body weight (Fig4B) (Diben-100mpk, day 5, individual mice, 100 mg/kg): 154.0 and 147.9 and 188.2 and 194.1
- Body weight (Fig4B) (Diben-200mpk, day 0, individual mice, 200 mg/kg): 111.2 and 88.7 and 105.9 and 107.7 and 103.2 and 83.4
- Body weight (Fig4B) (Diben-200mpk, day 1, individual mice, 200 mg/kg): 125.7 and 104.5 and 114.6 and 120.1 and 114.8 and 89.2
- Body weight (Fig4B) (Diben-200mpk, day 2, individual mice, 200 mg/kg): 114.8 and 130.4 and 137.3 and 125.5 and 125.0 and 98.5
- Body weight (Fig4B) (Diben-200mpk, day 3, individual mice, 200 mg/kg): 132.4 and 107.4 and 150.4 and 128.4 and 109.9 and 143.8
- Body weight (Fig4B) (Diben-200mpk, day 4, individual mice, 200 mg/kg): 124.4 and 149.1 and 155.3 and 166.7 and 150.7 and DIED
- Body weight (Fig4B) (Diben-200mpk, day 5, individual mice, 200 mg/kg): 132.2 and 156.0 and 162.7 and 162.5 and 153.8
- Body weight (Fig4B) (Diben-500mpk, day 0, individual mice, 500 mg/kg): 97.8 (2×) and 95.2 (2×) and 111.0 and 103.1
- Body weight (Fig4B) (Diben-500mpk, day 1, individual mice, 500 mg/kg): 118.9 and 116.3 and 111.0 and 105.7 (2×) and 124.2
- Body weight (Fig4B) (Diben-500mpk, day 2, individual mice, 500 mg/kg): 145.4 and 111.0 and 129.5 (2×) and 97.8 and 116.3
- Body weight (Fig4B) (Diben-500mpk, day 3, individual mice, 500 mg/kg): 118.9 and 169.2 and 132.2 and 108.4 and 102.6 and 148.0
- Body weight (Fig4B) (Diben-500mpk, day 4, individual mice, 500 mg/kg): 150.7 and DIED (2×) and 187.7 and 103.1 and 161.2
- Body weight (Fig4B) (Diben-500mpk, day 5, individual mice, 500 mg/kg): 100.4
- viral loads by immunofluorescence staining of organ sections (HCoV-OC43 nucleocapsid protein): reduced the viral loads
- damage caused by viral infection in brain and lung sections (H&E) (oral DBM): significantly reduced the damage
